Measured values reported in US9512083B2, “Histone deacetylase 6 selective inhibitors for the treatment of bone disease” (The General Hospital Corporation, priority 2012, dated 2016).
Entries after “also recorded” stand apart in the source; their conditions may differ.

Key:
[1] = target: T1, Sirtuin 1 (Homo sapiens, UniProt Q96EB6); assay: HDAC enzyme assay, Sirtuin 1; format: biochemical
T1 sequence (Q96EB6 1-747): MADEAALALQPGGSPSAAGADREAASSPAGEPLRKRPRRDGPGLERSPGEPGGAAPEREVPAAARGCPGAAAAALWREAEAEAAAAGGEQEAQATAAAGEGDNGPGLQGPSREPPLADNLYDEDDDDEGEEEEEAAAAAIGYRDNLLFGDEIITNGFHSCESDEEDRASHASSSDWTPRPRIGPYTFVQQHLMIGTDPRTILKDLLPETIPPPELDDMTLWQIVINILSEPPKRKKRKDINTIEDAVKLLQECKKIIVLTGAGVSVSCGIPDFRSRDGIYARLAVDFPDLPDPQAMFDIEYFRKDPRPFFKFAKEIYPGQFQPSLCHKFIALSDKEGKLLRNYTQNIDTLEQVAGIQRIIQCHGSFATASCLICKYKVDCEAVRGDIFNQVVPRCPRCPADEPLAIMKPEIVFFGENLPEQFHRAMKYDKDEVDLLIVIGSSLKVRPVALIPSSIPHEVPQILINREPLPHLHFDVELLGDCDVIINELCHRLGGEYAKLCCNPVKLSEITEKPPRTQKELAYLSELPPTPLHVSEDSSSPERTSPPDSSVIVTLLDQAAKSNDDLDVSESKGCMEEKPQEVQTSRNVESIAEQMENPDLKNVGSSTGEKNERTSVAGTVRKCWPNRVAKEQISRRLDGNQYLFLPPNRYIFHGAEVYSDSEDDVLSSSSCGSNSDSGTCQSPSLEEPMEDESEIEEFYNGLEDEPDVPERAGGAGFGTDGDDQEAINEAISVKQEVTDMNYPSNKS

[2] = tested on: osteoclasts (OCLs) differentiated from PBMCs from MM patients; assay: Osteoclastogenesis, TRAP staining; format: cell-based, human
[3] = tested on: acetyl-Histone H3; assay: Immunohistochemistry of acetyl-Histone H3 in CD138+ MM patient cells; format: cell-based, human; conditions: treated vs control
[4] = tested on: osteoblasts (OBLs) differentiated from BMSCs derived from MM patients; assay: AlamarBlue viability assay of osteoblasts; format: cell-based, human; conditions: Compound A 1 μM and/or bortezomib 2.5 nM, 10-14 and 21 days
Experimental: Alamarblue was added to the wells to a final concentration of 10% alamar blue and the plates were incubated at […] and 5% CO2 for 1 to 4 hours. The plates were read at absorbance (OD) of 530 nm and 600 nm. The delta OD was recorded and the date were plotted as percentage of control.
The control (ctr) represents the OBL without any treatment. Cell viability was assessed by Alamarblue assay (a redox indicator that yields a colorimetric change and a fluorescent signal in a response to a metabolic activity) (Invitrogen, Carlsbad, Calif.). […] (FIG. 1A alarm blue after 14 days of differentiation in BMSC derived from patient 1, FIG. 1C alarm blue after 21 days of differentiation in BMSC derived from the same patient, FIG. 2A alarm blue after 14 days of differentiation in BMSC derived from patient 2, FIG. 2C alarm blue after 21 days of differentiation in BMSC derived from patient 2, FIG. 3A alarm blue after 10 days of differentiation in BMSC derived from patient 3).

[5] = tested on: ac-α-tubulin; assay: Immunohistochemistry of ac-α-tubulin in CD138+ MM patient cells; format: cell-based, human; conditions: treated vs control
[6] = target: T2, Sirtuin 2 (Homo sapiens, UniProt Q8IXJ6); assay: HDAC enzyme assay, Sirtuin 2; format: biochemical
T2 sequence (Q8IXJ6 1-389): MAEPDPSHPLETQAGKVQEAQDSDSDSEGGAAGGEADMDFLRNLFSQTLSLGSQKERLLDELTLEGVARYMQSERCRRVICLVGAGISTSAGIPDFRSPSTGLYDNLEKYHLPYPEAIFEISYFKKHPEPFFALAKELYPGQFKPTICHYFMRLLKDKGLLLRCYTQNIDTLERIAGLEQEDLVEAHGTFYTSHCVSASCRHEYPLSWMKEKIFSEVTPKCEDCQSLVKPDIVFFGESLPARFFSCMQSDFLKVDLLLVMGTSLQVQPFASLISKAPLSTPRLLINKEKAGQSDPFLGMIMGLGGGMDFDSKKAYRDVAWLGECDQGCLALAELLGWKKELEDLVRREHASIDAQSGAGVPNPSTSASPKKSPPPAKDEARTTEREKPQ

[7] = tested on: osteoclasts differentiated from MM patient bone marrow; assay: PIT formation assay (bone resorption); format: cell-based, human; conditions: Compound A 1 μM and/or bortezomib 2.5 nM, 7 days
Experimental: OC activity was assayed by bone resorption enumerating resorption pits. Briefly, mononuclear cells (1.8×10^6 cell/well) from MM patient bone marrow were cultured in a 24-well plate coated with a synthetic carbonate apatite (CaP) (Cosmo Bio Co., Ltd, Tokio, Japan) and stimulated with RANKL (25 ng/ml) and M-CSF (25 ng/ml). […] On day 7 the conditioned medium was removed from each well and the wells were treated with 5% sodium hypochlorite for five minutes. After washing and drying, resorption pits were photographed by light microscopy and quantified by Image J software. Each pit area assay was performed at least 3 times with BM from different donors.

[8] = tested on: ac-α-tubulin; assay: Western blot of ac-α-tubulin in CD138+ MM patient cells; format: cell-based, human; conditions: 2 μM, 4 hours
[9] = tested on: acetylated α-tubulin; assay: Acetylation of α-tubulin in MM.1S cells; format: cell-based; conditions: increasing doses, 18 hours
[10] = tested on: acetylation of lysine on Histone H3 and Histone H4; assay: Acetylation of Histone H3 and H4 in MM.1S cells; format: cell-based; conditions: compared to SAHA
[11] = tested on: osteoblasts (OBLs) differentiated from BMSCs derived from MM patients; assay: Alizarin red staining of calcium deposits in osteoblasts; format: cell-based, human; conditions: OBLs differentiated in presence of Compound A and/or bortezomib, 23 days
Source text: To evaluate calcium deposition, osteoblasts were washed with PBS and fixed after 23 days of treatment and assayed by alizarin red staining (Alizarin red solution, Millipore) that specifically stains mineralization area. The mineralization areas were visualized using Nikon Labophot-2 microscope with 10×/0.25 lens equipped with SPOT-insight QE camera.
The results shown in FIG. 4A “CTR alpha-mem” represent the BMSCs that have not been differentiated in OBL. The results shown in FIG. 4B “CRT OBL medium” represent the OBL without any treatment.

[12] = tested on: osteoblasts (OBLs) differentiated from BMSCs derived from MM patients; assay: Alkaline phosphatase (ALP) activity assay of osteoblasts; format: cell-based, human; conditions: Compound A 1 μM and/or bortezomib 2.5 nM, 10-14 and 21 days
Experimental: Following the AlamarBlue cell viability assay, the wells were then washed twice with PBS fixed for 5 minutes and washed again with distilled water and Alkaline Phosphatase Yellow (pNPP) Liquid Substrate System for ELISA (sigma-aldrich) was added to the wells. The plates were read at OD of 405 nm after 5 minutes of incubation.
(FIG. 1B ALP after 14 days of differentiation in BMSC derived from patient 1, FIG. 1D ALP after 21 days of differentiation in BMSC derived from the same patient, FIG. 2B ALP after 14 days of differentiation in BMSC derived from patient 2, FIG. 2D ALP after 21 days of differentiation in BMSC derived from patient 2, FIG. 3B ALP after 10 days of differentiation in BMSC derived from patient 3).

[13] = tested on: pERK, pAkt, c-fos in OCLs; assay: Immunoblot of signaling pathway in OCLs; format: cell-based, human; conditions: OCLs differentiated 10 days, treated with Compound A and or bortezomib 24 hours
Source text: Samples were then subjected to sodium dodecyl sulfate-polyacrylamide gel electrophoresis, transferred to PVDF membrane, and immunoblotted with antibodies against pAkt, Akt, and c-fos (Cell Signaling Technology, Beverly, Mass.) or phosphorylated extracellular signal-regulated kinase (pERK). Antigen-antibody complexes were detected by enhanced chemiluminescence (Amersham, Arlington Heights, Ill.). The membrane was stripped and reprobed with antitubulin antibody to ensure equal protein loading. Films were scanned and densitometric analysis performed.

O=C(CCCCCCNC(=O)c1cnc(N(c2ccccc2)c2ccccc2)nc1)NO [Compound A, 2-(diphenylamino)-N-(7-(hydroxyamino)-7-oxoheptyl)pyrimidine-5-carboxamide]
IC50 ([1]; Sirtuin 1): > 10 µM | IC50 ([1]; sirtuin 1, text (minimal activity)): > 1 µM | number of OCLs (multinucleated TRAP-positive cells) per well ([2]; compared with bortezomib or untreated control wells, 7 and 14 days): significantly decreases the number of OCLs; also recorded: inhibits osteoclastogenesis | number of OCLs (multinucleated TRAP-positive cells) per well, dose dependence ([2]; days 7 and 14 of osteoclast differentiation): decreases the number of OCLs (multinucleated TRAP-positive cells) per well in a dose dependent manner; also recorded: inhibits osteoclastogenesis in a dose-dependent manner | acetyl-Histone H3, immunohistochemistry (IHC) [3]: without any significant increase in acetyl-Histone H3 | viability of OBLs (AlamarBlue) [4]: does not induce cytotoxicity on OBL cells; also recorded: does not affect the viability of osteoblasts (OBLs) | ac-α-tubulin, immunohistochemistry (IHC) [5]: significant increase of ac-α-tubulin was observed in treated compared to control cells | IC50 ([6]; Sirtuin 2): > 10 µM | IC50 ([6]; sirtuin 2, text (minimal activity)): > 1 µM | PIT formation (resorption pits) [7]: significantly arrested PIT formation | ac-α-tubulin, Western blot [8]: significant increase of ac-α-tubulin in treated compared to control cells | acetylated α-tubulin [9]: dose dependent significant increase in the acetylated α-tubulin was observed even in the presence of low doses (0.04 μM) | acetylation of lysine on Histone H3 and Histone H4 [10]: less potent acetylation of lysine on Histone H3 and Histone H4 compared to SAHA | calcium deposits (Alizarin red staining) [11]: increases calcium deposits in OBL cells | OBLs function (alkaline phosphatase (ALP) activity) [12]: increases OBLs function; also recorded: increases the alkaline phosphate activity | pERK, pAkt and c-fos expression (immunoblot) [13]: downregulation of pERK, pEKT and cFOS expression
